According to patent US20120090502A1, “DIS-AZO COMPOUND AND OIL INK AND ELECTROWETTING DISPLAYS COMPRISING THE SAME” (JINTEX CORPORATION LTD., priority 2010, published 2012):

What was measured:
Type in all cases: physicochemical
[1] = maximum absorption wavelength and molar absorption coefficient in dodecane; conditions: for wavelength (nm)/dodecane: maximum absorption wavelength
[2] = oil ink tested by UV-Vis spectrophotometer; set-up: FoM / value of a / value of b: scale not given here; conditions: oil ink in dodecane; for FoM: Figure of Merit = ε×C; for full width at half maximum (nm): wavelength range at half height of absorption at λ max
Experimental: (§1) 1.0 g of purified dye (dis-azo compound of the present invention) weighed was dispersed in 10 g of dodecane and then heated to 80° C. and stirred for one hour. After that, the mixture solution was removed to a ultrasonic oscillator and oscillated for one hour and then filtered through 0.45 μm filter to obtain the oil ink of the present invention. The oil ink of the present invention was tested by UV-Vis spectrophotometer. According to Table 3, ail of the oil ink of the present invention fulfills elementary conditions of oil ink for electrowetting display.

[3] = oil ink performance test: viscosity and surface tension; set-up: surface tension (dyne/cm^2): unit not given here; conditions: for surface tension (dyne/cm^2): oil ink in dodecane; for viscosity (cp): oil ink: 1.0 g dye dispersed in 10 g dodecane, filtered 0.45 μm
Experimental: as §1, with “The oil ink of the present invention was tested by UV-Vis spectrophotometer.” left out

solubility in dodecane = experiment: solubility in dodecane

CCCCc1ccc(N=Nc2ccc(N=Nc3ccc4c5c(cccc35)NC(CC(C)C)(CC(C)C)N4)c3ccccc23)cc1 [D4-C4,4]
ε (molar absorption coefficient) [1]: 3.41 × 10^3
wavelength (nm)/dodecane [1]: 560 nm
FoM [2]: 191
full width at half maximum (nm) [2]: 250 nm
surface tension (dyne/cm^2) [3]: 24.5
viscosity (cp) [3]: 2.21 cp
solubility (%) (solubility in dodecane): 4.00%

CCCCCCCCCCc1ccc(N=Nc2ccc(N=Nc3ccc4c5c(cccc35)NC(CC(C)C)(CC(C)C)N4)c3ccccc23)cc1 [D10-C4,4]
ε (molar absorption coefficient) [1]: 9.95 × 10^3
wavelength (nm)/dodecane [1]: 590 nm
FoM [2]: 136
full width at half maximum (nm) [2]: 320 nm
surface tension (dyne/cm^2) [3]: 24.8
viscosity (cp) [3]: 2.55 cp
solubility (%) (solubility in dodecane): 1.23%

CCCCCCCCc1ccc(N=Nc2ccc(N=Nc3ccc4c5c(cccc35)NC(CC(C)C)(CC(C)C)N4)c3ccccc23)cc1 [D8-C4,4]
ε (molar absorption coefficient) [1]: 9.50 × 10^3
wavelength (nm)/dodecane [1]: 580 nm
FoM [2]: 320
full width at half maximum (nm) [2]: 300 nm
surface tension (dyne/cm^2) [3]: 23.5
viscosity (cp) [3]: 2.33 cp
solubility (%) (solubility in dodecane): 2.96%

CCCCCCCCc1ccc(N=Nc2ccc(N=Nc3ccc4c5c(cccc35)NC(CC)(CC)N4)c3ccccc23)cc1 [D8-C2,2]
ε (molar absorption coefficient) [1]: 7.05 × 10^3
wavelength (nm)/dodecane [1]: 580 nm
FoM [2]: 526
full width at half maximum (nm) [2]: 300 nm
surface tension (dyne/cm^2) [3]: 23.2
viscosity (cp) [3]: 2.42 cp
solubility (%) (solubility in dodecane): 6.00%

CCCCCCCCCCc1ccc(N=Nc2ccc(N=Nc3ccc4c5c(cccc35)NC(C)(CCCC)N4)c3ccccc23)cc1 (racemic) [D10-C1,4]
ε (molar absorption coefficient) [1]: 9.11 × 10^3
wavelength (nm)/dodecane [1]: 560 nm
FoM [2]: 232
full width at half maximum (nm) [2]: 320 nm
surface tension (dyne/cm^2) [3]: 23.6
viscosity (cp) [3]: 2.42 cp
solubility (%) (solubility in dodecane): 2.15%

CCCCCCCCCCc1ccc(N=Nc2ccc(N=Nc3ccc4c5c(cccc35)NC(CC)(CC)N4)c3ccccc23)cc1 [D10-C2,2]
ε (molar absorption coefficient) [1]: 8.13 × 10^3
wavelength (nm)/dodecane [1]: 580 nm
FoM [2]: 779
value of L ([2]; hue): 0.01
value of a ([2]; hue): 0.38
value of b ([2]; hue): −0.18
full width at half maximum (nm) [2]: 320 nm
surface tension (dyne/cm^2) [3]: 25.1
viscosity (cp) [3]: 2.35 cp
solubility (%) (solubility in dodecane): 8.00%
